Data: US9408826B2, “Isoflavone anti-viral compounds” (Kineta, Inc., priority 2010, dated 2016)

Tested on: Murine Encephalomyocarditis virus (EMCV)
Assay: EMCV antiviral assay (cell viability by MTS)
Type: cell-based
Conditions: Huh7 cells; for Cell viability post-infection: EMCV 250 pfu, MTS
Experimental: Huh7 cells were grown under normal growth conditions and treated with the indicated amount of drug in media containing 0.5% DMSO. The cells were grown in the presence of drug for 5 hours and then infected with 250 pfu Murine Encephalomyocarditis virus (EMCV) for example obtained from ATCC #VR-129B. Infected cells were grown for an additional 18 hours and then cell viability was measured using an MTS assay. Negative control cells were treated with buffer alone containing 0.5% DMSO. Interferon treatment was used as a positive control for virus inhibition and was added similar to drug treatments at a final concentration of 10 IU/mL for example Interferon-α: Intron A, from Schering-Plough. Cell viability was measured using an MTS assay such as; CellTiter 96® AQueous One Solution Cell Proliferation Assay (MTS), from Promega #G3580.

## CS(=O)(=O)Oc1ccc2c(=O)c(-c3ccc(Br)cc3)coc2c1 [KIN101, [3-(4-bromophenyl)-4-oxo-chromen-7-yl] methanesulfonate]
5 μM drug
  Cell viability post-infection: ~0.7
10 μM drug
  Cell viability post-infection: ~1.2
20 μM drug
  Cell viability post-infection: ~1.45
  Protection of cell viability following infection with EMCV (in words): protective of cell viability
